Where two headings read alike, the source gives them in different places.
How the values were obtained:
Assay type in all cases: in vivo
[1] = tested on: melon aphids (Aphis gossypii Glover); experiment: Mite/insect screen, MA; details: Aphis gossypii, percent mortality, read-out: MA RESULTS %
Method in brief: (§1)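 Foliar spray to runoff (10 psi), 1 h drying; aqueous dilutions from acetone/alcohol emulsifier stock. Mortality (%) after standard exposure.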

[2] = tested on: Pseudoperonospora cubensis (downy mildew); experiment: Test 1 greenhouse foliar spray screen, downy mildew on squash; details: for DOWN MDEW: disease control rating, foliar spray on squash, 400 ppm (+++ at 100 ppm); for pest or weed control at 400 ppm: Pseudoperonospora cubensis, foliar, Test 1, foliar spray on squash, disease control rating at 400 ppm / 100 ppm, read-out: DOWN MDEW
[3] = tested on: Twospotted spider mites (Tetranychus urticae Koch); experiment: Mite/insect screen, SM; details: for mortality at 200 ppm / mortality at 400 ppm: Tetranychus urticae, percent mortality, read-out: SM RESULTS %
Method in brief: as §1

[4] = tested on: southern armyworm (Spodopetra eridania Cramer); experiment: Mite/insect screen, SAW; details: Spodoptera eridania, percent mortality, read-out: SAW RESULTS %
Method in brief: as §1

[5] = tested on: Puccinia recondita tritici (leaf rust); experiment: Test 1 greenhouse foliar spray screen, leaf rust on wheat; details: for LEAF RUST: disease control rating, foliar spray on wheat, 400 ppm (+++ at 100 ppm); for pest or weed control at 400 ppm: Puccinia recondita, foliar, Test 1, foliar spray on wheat, disease control rating at 400 ppm / 100 ppm
[6] = tested on: Botrytis cinerea (gray mold); experiment: Test 1 greenhouse foliar spray screen, gray mold on grape berries; details: for GRAY MOLD: disease control rating, spray on grape berries, 400 ppm (+++ at 100 ppm); for pest or weed control at 400 ppm: Botrytis cinerea, foliar, Test 1, spray on grape berries, disease control rating at 400 ppm / 100 ppm
corn rootworm = experiment: Mite/insect screen, CRW; details: percent mortality, read-out: CRW RESULTS %
Method in brief: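 Following dissolution in equal parts acetone and alcohol with 23 g/L and 13 g/L emulsifier blends and dilution with water, test solutions were scored for percent mortality at the end of standard exposures.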

[7] = tested on: Pyricularia oryzae (rice blast); experiment: whole plant or invertebrate; details: for RICE BLAST: disease control rating, foliar spray on rice, 400 ppm (+++ at 100 ppm); for pest or weed control at 400 ppm: Pyricularia oryzae, foliar, read-out: RICE BLAST, Test 1, foliar spray on rice, disease control rating at 400 ppm / 100 ppm
[8] = tested on: Erysiphe graminis tritici (powdery mildew); experiment: Test 1 greenhouse foliar spray screen, powdery mildew on wheat; details: for POWD MDEW: disease control rating, foliar spray on wheat, 400 ppm (+++ at 100 ppm); for pest or weed control at 400 ppm: Blumeria graminis, foliar, Test 1, foliar spray on wheat, disease control rating at 400 ppm / 100 ppm, read-out: POWD MDEW
[9] = foliar, rate 200 ppm, foliar spray on squash
[10] = foliar, rate 400 ppm, foliar spray on squash

Row | Compound | DOWN MDEW [2] | LEAF RUST [5] | GRAY MOLD [6] | RICE BLAST [7] | POWD MDEW [8] | mortality at 200 ppm [1, 9] [%] | mortality at 400 ppm [1, 10] [%] | mortality at 200 ppm [3, 9] [%] | mortality at 400 ppm [3, 10] [%] | mortality at 200 ppm [4, 9] [%] | mortality at 400 ppm [4, 10] [%] | mortality at 12 ppm (corn rootworm; CRW rate 12.00 ppm) [%] | mortality at 24 ppm (corn rootworm; CRW rate 24.00 ppm) [%] | pest or weed control at 400 ppm [2] [%] | pest or weed control at 400 ppm [5] [%] | pest or weed control at 400 ppm [6] [%] | pest or weed control at 400 ppm [7] [%] | pest or weed control at 400 ppm [8] [%] | also measured
1 | CC(=O)N(CCC1CCCCC1)c1ccnc2c(F)cccc12 [Example 161, N-(2-cyclohexylethyl)-N-(8-fluoro-4-quinolinyl)acetamide] | + (20-89% control at 400 ppm) | - (0-19% control at 400 ppm) | - (0-19% control at 400 ppm) | + (20-89% control at 400 ppm) | + (20-89% control at 400 ppm) | – | – | – | – | – | – | – | – | – | – | – | – | – | mortality at 200 ppm ([1]; SAW, SM & MA RATE 200 PPM): 0%; mortality at 400 ppm ([1]; SAW, SM & MA RATE 400 PPM): 80%; mortality at 200 ppm ([3]; SAW, SM & MA RATE 200 PPM): 0%; mortality at 400 ppm ([3]; SAW, SM & MA RATE 400 PPM): 0%; mortality at 200 ppm ([4]; SAW, SM & MA RATE 200 PPM): 0%; mortality at 400 ppm ([4]; SAW, SM & MA RATE 400 PPM): 0%; mortality at 12 ppm (corn rootworm; CRW RATE 12.00 PPM): 0%; mortality at 24 ppm (corn rootworm; CRW RATE 24.00 PPM): 40%
2 | FC(F)(F)c1ccc2c(NCCC3=CCCCC3)ccnc2c1 [Example 167, N-[2-(1-cyclohexenyl)ethyl]-7-(trifluoromethyl)-4-quinolinamine] | + (20-89% control at 400 ppm) | - (0-19% control at 400 ppm) | - (0-19% control at 400 ppm) | - (0-19% control at 400 ppm) | + (20-89% control at 400 ppm) | 0 | 0 | 0 | 0 | 0 | 0 | 0 | 0 | – | – | – | – | – | –
3 | Fc1cccc2c(NCCC3CCCCC3)ccnc12 [Example 177, N-(2-cyclohexylethyl)-8-fluoro-4-quinolinamine] | +++ (90-100% control at 100 ppm) | +++ (90-100% control at 100 ppm) | - (0-19% control at 400 ppm) | +++ (90-100% control at 100 ppm) | ++ (90-100% control at 400 ppm) | 0 | 0 | 0 | 0 | 0 | 0 | 0 | 100 | – | – | – | – | – | –
4 | Cc1cc(C)c2nccc(NCCC3CCCCC3)c2c1 [Example 178, N-(2-cyclohexylethyl)-6,8-dimethyl-4-quinolinamine] | +++ (90-100% control at 100 ppm) | ++ (90-100% control at 400 ppm) | - (0-19% control at 400 ppm) | + (20-89% control at 400 ppm) | - (0-19% control at 400 ppm) | 0 | 0 | 0 | 0 | 0 | 0 | 0 | 0 | – | – | – | – | – | –
5 | CC(=O)N(CCc1ccc(Cl)cc1)c1cc(N(CCc2ccc(Cl)cc2)C(C)=O)c2ccccc2n1 [Example 182, N,N'-(2,4-quinolinediyl)bis[N-[2-(4-chlorophenyl)ethyl]acetamide]] | - (0-19% control at 400 ppm) | - (0-19% control at 400 ppm) | - (0-19% control at 400 ppm) | + (20-89% control at 400 ppm) | - (0-19% control at 400 ppm) | 0 | 0 | 0 | 0 | 0 | 0 | 0 | 0 | – | – | – | – | – | –
6 | Clc1ccc(CCNc2ccc3nccc(NCCc4ccc(Cl)cc4)c3c2)cc1 [Example 185, N,N'-bis[2-(4-chlorophenyl)ethyl]-4,6-quinolinediamine] | + (20-89% control at 400 ppm) | + (20-89% control at 400 ppm) | - (0-19% control at 400 ppm) | + (20-89% control at 400 ppm) | - (0-19% control at 400 ppm) | 0 | 0 | 0 | 0 | 0 | 0 | 0 | 0 | – | – | – | – | – | –
7 | Fc1cccc2c(NCCc3ccc(Cl)cc3)cc(NCCc3ccc(Cl)cc3)nc12 [Example 188, N,N'-bis[2-(4-chlorophenyl)ethyl]-8-fluoro-2,4-quinolinediamine] | – | – | – | – | – | – | 0 | – | 0 | – | 0 | – | 0 | 90 to 100 | 20 to 89 | 0 to 19 | 90 to 100 | 0 to 19 | –
8 | CC(=O)N(CCc1ccc(Cl)cc1)c1ccc2c(N(CCc3ccc(Cl)cc3)C(C)=O)ccnc2c1 [Example 191, N,N'-(4,7-quinolinediyl)bis[N-[2-(4-chlorophenyl)ethyl]acetamide]] | – | – | – | – | – | 0 | 0 | 0 | 0 | 0 | 0 | 0 | 0 | 0 to 19 | 90 to 100 | 0 to 19 | 20 to 89 | 0 to 19 | –
9 | Cc1ccc(CCOc2cc(Cl)nc3c(F)cccc23)cc1 [Example 193, 2-chloro-8-fluoro-4-[2-(4-methylphenyl)ethoxy]quinoline] | – | – | – | – | – | 0 | 0 | 0 | 0 | 0 | 0 | 0 | 0 | 0 to 19 | 20 to 89 | 0 to 19 | 0 to 19 | 0 to 19 | –
10 | Clc1cc(Cl)c2c(OCCc3ccc(-c4ccccc4)cc3)ccnc2c1 [Example 194, 5,7-dichloro-4-[2-(1,1'-biphenyl)-4-ylethoxy]quinoline] | – | – | – | – | – | 0 | 0 | 0 | 0 | 0 | 0 | 0 | 0 | 0 to 19 | 0 to 19 | 0 to 19 | 0 to 19 | 20 to 89 | –
11 | COc1cccc(CCOc2ccnc3c(F)cccc23)c1 [Example 195, 4-[2-(3-methoxyphenyl)ethoxy]-8-fluoroquinoline] | – | – | – | – | – | – | 0 | – | 0 | – | 0 | – | 0 | 90 to 100 | 90 to 100 | 0 to 19 | 90 to 100 | 90 to 100 | –
12 | COc1ccc(CCOc2ccnc3c(F)cccc23)cc1 [Example 196, 8-fluoro-4-[2-(4-methoxyphenyl)ethoxy]quinoline] | – | – | – | – | – | – | 100 | – | 100 | – | 0 | – | 0 | 90 to 100 | 90 to 100 | 0 to 19 | 90 to 100 | 90 to 100 | activity as miticides ([3]; summary statement in the description): particularly excellent activity
